This is an account of results in PubChem BioAssay (NCI).

Molecules are shown by their SMILES. Values joined by “and” are separate entries in the source; they are usually repeats but may differ in a detail not shown here. Equal entries are not always repeated.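 Results reflect a 48-hour exposure of cells in 96-well plates to compound at five concentrations. At the GI50, growth is halved. TGI: total growth inhibition.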

The first assay deals with SR leukemia. Nature of the assay: NCI tumour cell line growth inhibition, 48 h.
Turning to `C1COCCN1.C1COCCN1.N.N.[Cl-].[Pt+2]`, the GI50 was greater than 100 µM and the TGI is greater than 100 µM.

`COC(=O)C(c1[nH]nc2ccccc12)C(C(=O)OC)c1[nH]nc2ccccc12` (stereo not drawn) had a TGI greater than 100 µM.

Consider `C#CCNC(=O)NC(CCCNC(=O)OCc1ccccc1)C(=O)OCc1ccccc1` (stereo not drawn), for which the TGI was greater than 100 µM.

Consider `COc1ccc2cc1Oc1ccc(cc1)C[C@H]1c3cc(c(OC)cc3CCN1C)Oc1c(OC)c(OC)cc3c1[C@H](C2)N(C)CC3`, for which the GI50 was 0.0282 µM.

In turn, `O=c1[nH]c2ccccc2cc1C(Cl)=C(Cl)Cl` showed a TGI greater than 100 µM.

Turning to `O=[N+]([O-])[C@@H]1C2C=CC(C2)[C@H]1Cl` (stereo partly drawn), the TGI is greater than 100 µM.

Regarding `CCc1c2c(nc3cc4c(cc13)OCO4)-c1cc3c(c(=O)n1C2)COC(=O)[C@]3(O)CC`, the GI50 is less than 0.001 µM.

For `N#CC1(c2nc3ccccc3o2)C(=O)C(=O)N(C2C3CC4CC(C3)CC2C4)C(=O)C1=O` (stereo not drawn), the TGI was greater than 100 µM.

The compound `O=C1NC(c2ccc(O)cc2)C2CCC1C2` (stereo not drawn) had a TGI greater than 100 µM.

For `COc1ccc(/C=C/C=C(/C#N)C(N)=S)cc1`, the GI50 is 19.4 µM and the TGI is greater than 100 µM.

The compound `CC(=O)OC1=C2CC3(C)OC(=O)CC(C)(C)C3=CC=C2C=C(C(C)C)C1=O` (stereo not drawn) yielded a TGI of 1.01 µM.

Take `CCCCCCCCCCCCCCCC(=O)NCC(COP(=O)([O-])OCC[N+](C)(C)C)OCC` (stereo not drawn): the TGI was 18.6 µM.

On to `O=C1NC2(CCCC2)C(=O)C12CCCC2`, for which the TGI is greater than 100 µM.

`O=C1CCCN(c2ccccc2)N1` displayed a TGI greater than 100 µM.

For `CCOC(=O)C1=C(C)Nc2ccccc2S1`, the TGI is greater than 100 µM.

For a further assay, the system named is LOX IMVI melanoma. Nature of the assay: NCI tumour cell line growth inhibition, 48 h.
`Cn1cc(NC(=O)c2cc(NC(=O)CCCCCCCCCCC(=O)Nc3cc(C(=O)Nc4cc(C(=O)NCCC(=N)N)n(C)c4)n(C)c3)cn2C)cc1C(=O)NCCC(=N)N`: the TGI is greater than 100 µM.

Take `C1COCCN1.C1COCCN1.N.N.[Cl-].[Pt+2]`: the GI50 was greater than 100 µM and the TGI was greater than 100 µM.

In the case of `O=C(c1ccc2ccccc2c1)c1c(C(F)(F)F)n([O-])c2cc(Cl)c(Cl)cc2[n+]1=O`, the GI50 is 1.17 µM and the TGI amounted to 2.4 µM.

For `Cc1ccccc1C(C#N)C(=O)C(=O)Nc1nc([N+](=O)[O-])cs1` (stereo not drawn), the TGI was greater than 100 µM.

`COC(=O)C(c1[nH]nc2ccccc12)C(C(=O)OC)c1[nH]nc2ccccc12` (stereo not drawn) displayed a TGI greater than 100 µM.

`C#CCNC(=O)NC(CCCNC(=O)OCc1ccccc1)C(=O)OCc1ccccc1` (stereo not drawn) came in with a TGI greater than 100 µM.

`O=c1[nH]c2ccccc2cc1C(Cl)=C(Cl)Cl`: the TGI was greater than 100 µM.

The compound `O=[N+]([O-])[C@@H]1C2C=CC(C2)[C@H]1Cl` (stereo partly drawn) gave a TGI greater than 100 µM.

As to `CCc1c2c(nc3cc4c(cc13)OCO4)-c1cc3c(c(=O)n1C2)COC(=O)[C@]3(O)CC`, the GI50 was 0.00197 µM; the TGI is 0.122 µM and 0.52 µM.

Turning to `COC(=O)C(C#N)=C1c2ccccc2Oc2ccccc21`, the TGI is greater than 100 µM.

Regarding `N#CC1(c2nc3ccccc3o2)C(=O)C(=O)N(C2C3CC4CC(C3)CC2C4)C(=O)C1=O` (stereo not drawn), the TGI is greater than 100 µM.

The compound `CCOC(=O)C1(CC)CCCCC(=O)N1` (stereo not drawn) displayed a TGI greater than 100 µM.

Compound `C=CC1=CSNN1` gave a TGI greater than 100 µM.

In turn, `O=C(C#Cc1c[nH]c(=O)[nH]c1=O)c1ccccc1Cl` returned a TGI of 26.7 µM.

As to `COc1ccc(/C=C/C=C(/C#N)C(N)=S)cc1`, the GI50 is 16 µM and the TGI is 37.4 µM.

For the compound `COc1ccc(-c2cc(-c3cc(Cl)ccc3Cl)nc3[nH]c(-c4cc(F)c(Cl)cc4Cl)cc(=O)c23)cc1`, the GI50 is 15.3 µM and the TGI is 34.4 µM.

`CC(=O)OC1=C2CC3(C)OC(=O)CC(C)(C)C3=CC=C2C=C(C(C)C)C1=O` (stereo not drawn) registered a TGI of 0.425 µM.

In turn, `CCCCCCCCCCCCCCCC(=O)NCC(COP(=O)([O-])OCC[N+](C)(C)C)OCC` (stereo not drawn) displayed a TGI of 34.4 µM.

In the case of `O=c1cc(-c2cccc(F)c2)[nH]c2cc3c(cc12)OCO3`, the GI50 is 0.326 µM; the TGI was 6.4 µM and > 54.4 µM.

In the case of `COC(=O)C1OC(O[C@H]2CCC3(C)C(CCC4(C)C3CC=C3C5CC(C)(C)CCC5(C(=O)O)CC[C@]34C)C2(C)C)C(O)C(OC2OC(CO)C(O)C(O)C2O)C1O` (stereo partly drawn), the GI50 was 6.27 µM and the TGI was found to be 11.7 µM.

For `O=C1NC2(CCCC2)C(=O)C12CCCC2`, the TGI is greater than 100 µM.

The compound `O=C1CCCN(c2ccccc2)N1` displayed a TGI greater than 100 µM.

Consider `CN(C)/C(=N/C(=S)Nc1ccccc1)SCc1ccccc1`, for which the TGI was greater than 100 µM.

`CCOC(=O)C1=C(C)Nc2ccccc2S1` displayed a TGI greater than 100 µM.

In turn, `CCOC(=O)CC1=Nc2ccccc2SC1` gave a TGI greater than 100 µM.

In turn, `C=CCSC[C@H](NC(=O)COc1ccccc1)C(=O)NC(C(=O)OCc1ccc([N+](=O)[O-])cc1)=C(C)C` gave a TGI greater than 100 µM.

For another assay, the system named is PC-3 prostate. The assay is described as follows: NCI tumour cell line growth inhibition, 48 h.
For the compound `CCc1c2c(nc3cc4c(cc13)OCO4)-c1cc3c(c(=O)n1C2)COC(=O)[C@]3(O)CC`, the GI50 was 0.277 µM and 0.122 µM; the TGI was greater than 100 µM.

`COc1ccc(-c2cc(-c3cc(Cl)ccc3Cl)nc3[nH]c(-c4cc(F)c(Cl)cc4Cl)cc(=O)c23)cc1`: the GI50 was 39.3 µM and the TGI was greater than 100 µM.

Regarding `O=c1cc(-c2cccc(F)c2)[nH]c2cc3c(cc12)OCO3`, the TGI is greater than 89.5 µM.

For `COC(=O)C1OC(O[C@H]2CCC3(C)C(CCC4(C)C3CC=C3C5CC(C)(C)CCC5(C(=O)O)CC[C@]34C)C2(C)C)C(O)C(OC2OC(CO)C(O)C(O)C2O)C1O` (stereo partly drawn), the GI50 was 6.43 µM and the TGI amounted to 11.8 µM.

In a further assay the test system is HT29 colon. Nature of the assay: NCI tumour cell line growth inhibition, 48 h.
For `CCOc1ccc(NC(=O)CC2Sc3ccccc3NC2=O)cc1` (stereo not drawn), the TGI was greater than 100 µM.

With `Cn1cc(NC(=O)c2cc(NC(=O)CCCCCCCCCCC(=O)Nc3cc(C(=O)Nc4cc(C(=O)NCCC(=N)N)n(C)c4)n(C)c3)cn2C)cc1C(=O)NCCC(=N)N`, the TGI was greater than 100 µM.

On to `O=C(c1ccc2ccccc2c1)c1c(C(F)(F)F)n([O-])c2cc(Cl)c(Cl)cc2[n+]1=O`, for which the GI50 is 1.49 µM and the TGI stood at 2.81 µM.

As to `Cc1ccccc1C(C#N)C(=O)C(=O)Nc1nc([N+](=O)[O-])cs1` (stereo not drawn), the TGI was greater than 100 µM.

Regarding `COC(=O)C(c1[nH]nc2ccccc12)C(C(=O)OC)c1[nH]nc2ccccc12` (stereo not drawn), the TGI is greater than 100 µM.
